These results are taken from patent US8338472B2, “Hexahydrocyclopentyl[F]indazole carboxamides and derivatives thereof as selective glucocorticoid receptor modulators” (Merck Sharp & Dohme Corp., priority 2008, dated 2012).

The target of one assay is T1, Glucocorticoid Receptor (Homo sapiens, UniProt P04150).
T1 construct: These cells express large amount of the GR and are very responsive to GC treatment; endogenous in cells; host or cells: A549 cells transiently transfected with the MMTV-LUC reporter
T1 sequence (P04150 1-777): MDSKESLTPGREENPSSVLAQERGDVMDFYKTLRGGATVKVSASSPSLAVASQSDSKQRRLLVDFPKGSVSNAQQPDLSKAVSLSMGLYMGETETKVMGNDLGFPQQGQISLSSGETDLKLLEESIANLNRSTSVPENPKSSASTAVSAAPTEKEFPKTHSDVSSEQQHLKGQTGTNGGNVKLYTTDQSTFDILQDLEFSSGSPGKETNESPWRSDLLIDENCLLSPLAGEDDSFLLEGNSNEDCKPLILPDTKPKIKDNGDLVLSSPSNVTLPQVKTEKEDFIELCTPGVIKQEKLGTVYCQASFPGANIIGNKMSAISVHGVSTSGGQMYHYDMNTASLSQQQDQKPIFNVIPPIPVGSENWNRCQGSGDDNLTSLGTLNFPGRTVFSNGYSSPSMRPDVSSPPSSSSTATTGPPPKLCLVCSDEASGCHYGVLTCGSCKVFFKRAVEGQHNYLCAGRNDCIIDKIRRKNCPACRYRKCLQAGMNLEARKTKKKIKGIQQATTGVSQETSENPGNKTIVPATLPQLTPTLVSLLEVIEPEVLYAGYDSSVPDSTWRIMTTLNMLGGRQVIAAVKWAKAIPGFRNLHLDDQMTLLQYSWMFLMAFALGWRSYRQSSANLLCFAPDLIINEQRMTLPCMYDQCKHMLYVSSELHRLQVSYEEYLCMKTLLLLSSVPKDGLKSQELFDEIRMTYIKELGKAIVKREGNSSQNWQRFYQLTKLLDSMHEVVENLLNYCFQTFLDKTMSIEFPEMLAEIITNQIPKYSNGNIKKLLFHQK
The assay can be described thus: Trans-Activation Modulation of Glucocorticoid Receptor (GRAMMER), MMTV-LUC reporter gene in A549 cells. It is filed as cell-based. To be noted: Table 1; for Emax: A549, A549 cells, Emax relative to 300 nM dexamethasone, read-out: Transactivation A549 Cells GRAMMER Emax; for EC50: inflection point, A549 cells, read-out: Transactivation A549 Cells GRAMMER IP. From the text: Trans-Activation Modulation of Glucocorticoid Receptor (GRAMMER)
This assay assesses the ability of test compounds to control transcription from the MMTV-LUC reporter gene in lung adenocarcinoma A549 cells or MDA-MB-453 cells, a human breast cancer cell line that naturally expresses the human GR. The assay measures induction of a modified MMTV LTR/promoter linked to the LUC reporter gene.
The routine transient assay consists of plating 7,000-25,000 cells/well of a white, clear-bottom 96-well plate. Alternatively, 384-well plates can be used at a cell concentration of 10,000/well. The media that the cells are plated in is “exponential growth medium” which consists of phenol red-free RPMI1640 containing 10% FBS, 4 mM L-glutamine, 20 mM HEPES, 10 ug/mL human insulin, and 20 ug/mL gentamicin. Incubator conditions are 37° C. and 5% CO2. The transfection is done in batch mode. The cells are trypsinized and counted to the right cell number in the proper amount of fresh media. It is then gently mixed with the FuGene6/DNA mix and plated onto the 96 or 384-well plate, all the wells receive 100 uL or 40 uL, respectively, of medium+lipid/DNA complex then incubated 37° C. overnight. The transfection cocktail consists of serum-free OptiMEM, FuGene6 reagent and DNA. The manufacturer's (Roche Biochemical) protocol for cocktail setup is as follows: The lipid to DNA ratio is approximately 2.5:1 and the incubation time is 20 min at room temperature. Sixteen to 24 hours after transfection, the cells are treated with dexamethasone to a final concentration of 10 nM as well as the compound of interest, such that final DMSO (vehicle) concentration is equal to or less than 1%. Each plate also contains samples that are treated with 10 nM dexamethasone alone, which is used as the 100% activity control. The cells are exposed to the compounds for 24 hours. After 24 hours, the cells are lysed by a Promega cell culture lysis buffer for approximately 30 min and then the luciferase activity in the extracts is assayed in the 96-well format luminometer. In 384-well format, Steady-Glo (Promega) or Steady-Lite (PerkinElmer) can be used by adding an equal volume of reagent to the media present in each well. Activity induced by 10 nM dexamethasone alone is set at 100% activity. Antagonist activity is calculated by determining the decrease in dexamethasone-induced activity in response to compound treatment relative to samples that were treated with dexamethasone alone. […] This transactivation assay can be performed in an agonist and antagonist mode to identify these different activities.
Activity of test compounds is calculated as the Emax relative to the activity obtained with 300 nM dexamethasone. Activity of test compounds is calculated as the Emax relative to the activity obtained with 300 nM DEX. […] The action of compounds is also tested in an antagonist mode (Anti-GRAMMER) in which the cells are treated with medium containing an agonist such as 10 nM DEX and the ability to agents to inhibit the activation by an agonist is measured.
(In general: A reporter such as luciferase makes a cellular process visible.)

The target in assay [1] is T2, glucocorticoid receptor (GR) (Homo sapiens, UniProt P04150).
T2 sequence (P04150 1-777): T1 sequence (P04150 1-777)
The assay can be described thus: Ligand binding assay (GR BIND), 3H-dexamethasone displacement in MDA-MB-453 cell lysate. As to conditions: GR BIND Ki, Table 1.

Another assay deals with T3, human GR (Homo sapiens, UniProt P04150).
T3 construct: U937 cells contain an endogenous glucocorticoid receptor (GR); endogenous in cells; host or cells: U937 cells stably transfected with the TNF-alpha promoter/beta-lactamase reporter
T3 sequence (P04150 1-777): T1 sequence (P04150 1-777)
The assay can be described thus: Transrepression Assay (GITAR), TNFα-β-lactamase reporter gene in U937 cells. The assay is classed as cell-based. To be noted: for GITAR Greater than by GRAMMER % SEP: GITAR Emax minus GRAMMER Emax; for EC50: inflection point, U937 cells, read-out: Transrepression U937 Cells GITAR IP. The text has this:
Transrepression Assay (GITAR)
This assay assesses the ability of test compounds to control transcription from the TNFα-β-lactamase reporter gene in U937 cells, a human myelomonocytic leukemia cell line that naturally expresses the human GR. The assay measures compound dependent-repression of the TNFa promoter linked to a reporter gene.
The human U937 cells that had been stablely transfected with the TNF-α promoter driving β-lactamase are used for this assay. U937 cells contain an endogenous glucocorticoid receptor (GR). Cells are maintained in RPMI 1640 Growth medium (Gibco Cat#11875-093) containing 25 mM HEPES, 10% FBS, 2 mM L-Glutamine, 1 mM Sodium pyruvate, 25 μg/ml Gentamicin (Gibco Cat#15710-064), 1:1000 2-Mercaptoethanol (Gibco Cat#21985-023) and 0.8 mg/ml G418 (Gibco Cat#10131-027). The density of the cells in the flask needs to be about 1×10^6−3×10^6/ml at the time of harvest. Usually, the cells are split to 1.2˜1.4×10^5/ml (1:10) 3 days prior to the assay. 50,000 cells/well are plated in 96 well black-walled plates the day of assay. Test compounds are added 10 pt/well, and cells are incubated at 37° C. for 30-45 min. For assaying compounds, first dilute 1:10 in DMSO to make 1 mM, then further dilute 1:100 in medium to make 10× stock prior to adding to the cells. Add 50 ng/ml PMA (Sigma, cat# P8139) 10 μL/well to a final concentration 5 ng/ml, and 1 μg/ml LPS (Sigma, cat# L4130) 10 μL/well to a final concentration 100 ng/ml. Incubate cells at 37° C. overnight for ˜18 hr. PMA is stored frozen as 100 μg/ml stock in DMSO. Dilute 1:10 in DMSO for a working stock of 10 μg/ml and store at −20C. For assaying, dilute the […] working stock 1:200 in medium to make a 10× solution (50 ng/ml). Store frozen LPS at 1 mg/ml in PBS, dilute 1:1000 in medium to make 10× (1 μg/ml) for the assay. Add 6× loading buffer (CCF2−AM) 20 μL/well, and incubate at room temperature for 70-90 min. […] The activity repressed by 100 nM dexamethasone alone is set as 100% activity.

The mark [2] stands for this setting: U-937, U937 cells, activity repressed by 100 nM dexamethasone = 100%, Table 1, read-out: Transrepression U937 Cells GITAR Emax.
Setting [3] is: U-937, text statement, 100 nM dexamethasone = 100%, read-out: maximal activity in the transrepression assay (GITAR).

The structures appear in SMILES notation. Like-named read-outs stand apart in the source and are kept apart here.

As to `C[C@]12Cc3cnn(-c4ccc(F)cc4)c3C=C1CC[C@@H]2C(=O)N(Cc1ccc(Cl)cc1Cl)CC1CC1` [Compound 7, (4αR,5S)-N-(cyclopropylmethyl)-N-(2,4-dichlorobenzyl)-1-(4-fluorophenyl)-4α-methyl-1,4,4α,5,6,7-hexahydrocyclopenta[f]indazole-5-carboxamide], the Emax at Glucocorticoid Receptor was 13.4%; on human GR (setting [2]), 18.2%; at human GR (setting [3]), greater than 5%. Besides, the EC50 worked out at 1.4 µM at Glucocorticoid Receptor and 0.586 µM on human GR (Table 1). For the same compound, the inhibition constant Ki (commonly a dissociation constant, usually derived from enzyme kinetics or from competition with a known ligand) in assay [1] was found to be 0.0013 µM. In addition, the “GITAR Greater than by GRAMMER % SEP” value on human GR (Table 1) came out at 4.8%.
Take `CC(C)CCN(CCC(C)C)C(=O)[C@H]1CCC2=Cc3c(cnn3-c3ccc(F)cc3)C[C@@]21C` [Compound 8, (4αR,5S)-1-(4-fluorophenyl)-4α-methyl-N,N-bis(3-methylbutyl)-1,4,4α,5,6,7-hexahydrocyclopenta[f]indazole-5-carboxamide]: the figures for the Emax at Glucocorticoid Receptor, at human GR (setting [2]) and on human GR (setting [3]) were 5.6%, 18% and greater than 5%, respectively. In addition, the EC50 was 0.728 µM at Glucocorticoid Receptor and 0.812 µM on human GR (Table 1). Moreover, in assay [1], the inhibition constant Ki was determined as 0.001 µM. At human GR (Table 1), the “GITAR Greater than by GRAMMER % SEP” value stood at 12.4%.
Consider `CC(O)CN(CC(C)O)C(=O)[C@H]1CCC2=Cc3c(cnn3-c3ccc(F)cc3)C[C@@]21C` (stereo partly drawn) [Compound 10, (4αR,5S)-1-(4-fluorophenyl)-N,N-bis(2-hydroxypropyl)-4α-methyl-1,4,4α,5,6,7-hexahydrocyclopenta[f]indazole-5-carboxamide], for which the Emax is 40.8% on Glucocorticoid Receptor, 59.8% on human GR (setting [2]) and greater than 5% at human GR (setting [3]). Further, the EC50 on Glucocorticoid Receptor is 0.326 µM; on human GR (Table 1), 0.384 µM. This compound also came in with a Ki in assay [1] of 0.0018 µM. Also, the “GITAR Greater than by GRAMMER % SEP” value on human GR (Table 1) is recorded as 19.0%.
As to `CC(C)CN(CC(C)C)C(=O)[C@H]1CCC2=Cc3c(cnn3-c3ccc(F)cc3)C[C@@]21C` [Compound 11, (4αR,5S)-1-(4-fluorophenyl)-N,N-diisobutyl-4α-methyl-1,4,4α,5,6,7-hexahydrocyclopenta[f]indazole-5-carboxamide], the Emax at Glucocorticoid Receptor is 45.3%; at human GR (setting [2]), 67.5%; at human GR (setting [3]), greater than 5%. For the same compound, the EC50 at Glucocorticoid Receptor turned out to be 0.177 µM; on human GR (Table 1), 0.328 µM. The inhibitory constant (Ki) in assay [1] is 0.0017 µM. Also, the “GITAR Greater than by GRAMMER % SEP” value on human GR (Table 1) is on record as 22.2%.
In the case of `CCCCN(CC)C(=O)[C@H]1CCC2=Cc3c(cnn3-c3ccc(F)cc3)C[C@@]21C` [Compound 12, (4αR,5S)-N-butyl-N-ethyl-1-(4-fluorophenyl)-4α-methyl-1,4 ,4α,5,6,7-hexahydrocyclopenta[f]indazole-5-carboxamide], the values for the Emax at Glucocorticoid Receptor, on human GR (setting [2]) and at human GR (setting [3]) were 29.7%, 56.3% and greater than 5%, respectively. The EC50 on Glucocorticoid Receptor came to 0.376 µM; at human GR (Table 1) it was 0.662 µM. Moreover, in assay [1], the affinity corresponds to a Ki of 0.0014 µM. On human GR (Table 1), the “GITAR Greater than by GRAMMER % SEP” value worked out at 26.6%.
With `C[C@]12Cc3cnn(-c4ccc(F)cc4)c3C=C1CC[C@@H]2C(=O)N(CCC#N)CCC#N` [Compound 13, (4αR,5S)-N,N-bis(2-cyanoethyl)-1-(4-fluorophenyl)-4α-methyl-1,4,4α,5,6,7-hexahydrocyclopenta[f]indazole-5-carboxamide], the Emax was 14.4% on Glucocorticoid Receptor, 28% on human GR (setting [2]) and greater than 5% at human GR (setting [3]). Also, the figures for the EC50 at Glucocorticoid Receptor and at human GR (Table 1) were 0.519 µM and 1.08 µM, respectively. In assay [1], this compound returned a Ki of 0.0353 µM. The “GITAR Greater than by GRAMMER % SEP” value at human GR (Table 1) was found to be 13.6%.
With `C[C@]12Cc3cnn(-c4ccc(F)cc4)c3C=C1CC[C@@H]2C(=O)N(CCC#N)C1CC1` [Compound 14, (4αR,5S)-N-(2-cyanoethyl)-N-cyclopropyl-1-(4-fluorophenyl)-4α-methyl-1,4,4α,5,6,7-hexahydrocyclopenta[f]indazole-5-carboxamide], the Emax on Glucocorticoid Receptor is 11.2%; on human GR (setting [2]), 38.3%; at human GR (setting [3]), greater than 5%. The figures for the EC50 at Glucocorticoid Receptor and at human GR (Table 1) were 1.42 µM and 1.59 µM, respectively. Moreover, the affinity in assay [1] corresponds to a Ki of 0.0108 µM. Also, the “GITAR Greater than by GRAMMER % SEP” value on human GR (Table 1) came out at 27.1%.
Take `C[C@]12Cc3cnn(-c4ccc(F)cc4)c3C=C1CC[C@@H]2C(=O)N1CCCC(=O)CC1` [Compound 15, 1-{[(4αR,5S)-1-(4-fluorophenyl)-4α-methyl-1,4,4α,5,6,7-hexahydrocyclopenta[f]indazol-5-yl]carbonyl}azepan-4-one]: the Emax was 5.3% at Glucocorticoid Receptor, 12.5% at human GR (setting [2]) and greater than 5% at human GR (setting [3]). Besides, the values for the EC50 on Glucocorticoid Receptor and at human GR (Table 1) were 1.54 µM and 3.41 µM, respectively. In assay [1], this compound yielded a Ki of 0.12 µM. Further, the “GITAR Greater than by GRAMMER % SEP” value on human GR (Table 1) was found to be 7.2%.
